This is an account of results in ChEMBL document CHEMBL1147369, “Novel Diterpenoids from Taxus chinensis” (J Nat Prod, 1993).

A value given as a limit tells only on which side of the number the result lay.

This experiment in a line: Inhibition of tubulin microtubule disassembly.

`CC(=O)O[C@H]1C[C@]2(C(C)(C)O)C(=C1C)[C@@H](OC(=O)c1ccccc1)[C@H](OC(=O)c1ccccc1)[C@]1(C)[C@@H](OC(C)=O)C[C@H]3OC[C@@]3(OC(C)=O)[C@H]1[C@@H]2OC(=O)c1ccccc1` yielded an ID50 of more than 100 µM.
The same measure for `CC(=O)O[C@H]1C[C@H]2OC[C@@]2(OC(C)=O)[C@H]2[C@H](OC(C)=O)[C@]3(C(C)(C)O)C[C@H](OC(=O)/C=C/c4ccccc4)C(C)=C3[C@@H](OC(=O)c3ccccc3)[C@H](OC(C)=O)[C@]12C`: more than 100 µM; for `C=C1[C@@H](O)C[C@H](OC(C)=O)[C@@]2(C)[C@@H](OC(C)=O)[C@H](OC(=O)c3ccccc3)C3=C(C)[C@@H](O)C[C@@]3(C(C)(C)O)[C@@H](OC(C)=O)[C@H]12`: more than 100 µM; for `CC(=O)O[C@H]1C(=O)[C@@]2(C)[C@H]([C@H](OC(=O)c3ccccc3)[C@]3(O)C[C@H](OC(=O)[C@H](O)[C@@H](NC(=O)c4ccccc4)c4ccccc4)C(C)=C1C3(C)C)[C@]1(OC(C)=O)CO[C@@H]1C[C@@H]2O`: 0.29 µM.
The value for `CC(=O)O[C@H]1C(=O)[C@]2(CO)[C@H](O)C[C@H]3OC[C@@]3(OC(C)=O)[C@H]2[C@H](OC(=O)c2ccccc2)[C@]2(O)C[C@H](O)C(C)=C1C2(C)C` was more than 100 µM; that for `CC(=O)O[C@@]12CO[C@@H]1C[C@@H](O)[C@@]1(C)C(=O)C(=O)C3=C(C)[C@@H](O)C[C@@](O)([C@@H](OC(=O)c4ccccc4)[C@H]21)C3(C)C` was more than 100 µM.
